Experimental data as given in patent US20100159030A1, “METHODS FOR DETECTING AND MODULATING THE SENSITIVITY OF TUMOR CELLS TO ANTI-MITOTIC AGENTS AND FOR MODULATING TURMORGENICITY” (NewSouth Innovations Pty Limited, priority 2007, published 2010).

Legend:
class III β-tubulin = assay: Knockdown of class III β-tubulin expression (western blot, RT-PCR); assay type: cell-based, Human; conditions: H460, subculturing time course
Method: The effects of βIII-tubulin siRNA transfection on the gene and protein expression of the isotype, were assessed by RT-PCR and western blotting. For RT-PCR, total RNA was extracted from the transfected cells using the Trizol® reagent (Invitrogen), according to the manufacturer's instructions. RNA samples were DNAse-treated, reverse transcribed for RT-PCR analysis using methodology and specific primers as described in detail previously (Kavallaris et al. (1997) J Clin Invest 100, 1282-1293). B eta-2-micro globulin (β2M) was used as an internal mRNA control. Preparation of protein lysates and Western blot analysis were performed as follows. […] Primary antibodies were detected using horseradish peroxidase-linked secondary antibody (Amersham Pharmacia Biotech, Uppsala, Sweden) and enhanced chemiluminescence (GE Healthcare, Uppsala, Sweden) was used for detection. The blots were scanned using the Typhoon® scanner and quantified using ImageQuant® software version 5.2 (Molecular Dynamics Inc, Sunnyvale, Calif.). […]

H460 cells [1] = assay: Soft agar colony assay (anchorage-independent cell growth); assay type: cell-based, Human; conditions: vs mock or control siRNA/shRNA cells; 27-mers at 5 nM
Method: H460 cells were transfected with βIII-tubulin siRNA or control siRNA for 24 h as described above. Cells from each sample (1,000 cells per dish) were resuspended in 0.33% agar (37° C.) in RPMI containing 20% FCS, and plated onto 0.5% solidified agar/20% FCS/RPMI (37° C., bottom supportive layer) in 35 mm dishes. Triplicate plates were set up for each sample. The plates were placed at 4° C. for 10 min to solidify the top agar and then incubated at 37° C. in 5% CO2 for 12 days. After 12 days of culture, the colonies were counted and photographed using the Zeiss Axiovert S100 inverted microscope, 5× objective and SPOT digital camera (Thornwood, N.Y.).

NSCLC H460 cells = assay: Drug-treated clonogenic assay (surviving fraction, ID50) on siRNA/shRNA-transfected cells; assay type: cell-based, Human; conditions: for RS (relative sensitivity): Table 3
Method: Cells were transfected for 24 h and approximately 600 cells (for Calu-6) or 150 cells (for H460) were seeded into each well of a 6-well plate and allowed to attach for 4-6 h. The cell lines used in this study were not subject to prior drug selection, and are likely to represent intrinsic drug resistance observed in lung carcinoma.
Cells were then treated with increasing concentrations of various anti-mitotic drugs. Following a 3-day incubation at 37° C., the drug-containing medium was removed and replaced with fresh complete medium. Medium was changed at 3-4 day intervals for 7 to 10 days until visible colonies formed. […] Surviving colonies were simultaneously fixed and stained with 0.5% crystal violet in methanol, rinsed with water to remove excess stain and air-dried overnight.
The colonies in each well were manually counted, and the results were presented as surviving fraction according to the formula: surviving fraction was calculated as follows: colony number/(number of cells seeded×plating efficiency), where plating efficiency is equivalent to the colony number divided by the number of cells seeded in the drug-free medium. Dose-response curves were plotted for each drug-cell line combination and inhibitory dose (ID50) values were extrapolated from this curve using GraphPad Prism program (GraphPad Software, version 4, San Diego, Calif.). ID50 was defined as the concentration of the drug required to reduce the number of colonies in drug-treated wells to 50% of that of the relevant untreated control wells. The ID50 values were the means of at least four independent experiments.
To quantitate any change in drug sensitivity, drug treated clonogenic assays were performed. Twenty-four hours after siRNA transfection, cells were harvested and plated into 6-well plates for 6 h, prior to the addition of various drugs as indicated in the figure legends. After 72 h incubation, the drug-containing media was removed and replaced with complete growth media. Medium was changed every 3 days for 7 to 10 days until visible colonies formed. Colonies were simultaneously fixed and stained with 0.5% crystal violet in methanol, and manually counted. Individual stained colonies in each well were counted and the surviving fraction was calculated as follows: colony number/(number of cells seeded×plating efficiency), where plating efficiency equals the colony number divided by the number of cells seeded in drug-free media.

H460 cells [2] = assay: Apoptosis induction, Annexin V-FITC flow cytometry; assay type: cell-based, Human; conditions: βIII-tubulin siRNA vs control siRNA cells, 48 h; paclitaxel 1, 2, 5 nM; cisplatin 0.4 or 1 μM
Method: Annexin V-FITC staining followed by flow cytometry analysis was performed to address whether the increase in the sub-G1 population following exposure to tubulin-binding agents in the βIII-tubulin siRNA treated cells was related to an increase in apoptosis induction. Apoptosis induction was determined by transfecting H460 cells with siRNA for 72 h and harvesting (adherent and suspension) cells 48 h after drug treatment, as previously described in Pasquier et al., Mol Cancer Ther 2004; 3:1301-10. Briefly, 1×10^5 cells were incubated with Annexin V-FITC and propidium iodide for 15 min in the dark (Becton-Dickinson), immediately followed by flow cytometry using a FACSCalibur (Becton-Dickinson). Cytogram analysis was performed using CellQuest® software.

[3] = tested on: H460 cells stably expressing control or class III β-tubulin shRNA in subcutaneous tumors; assay: Nude mouse xenograft, cisplatin (CDDP) treatment of tumors from H460 shRNA clones; assay type: in vivo, BALB/c athymic nude mice; conditions: 3 doses CDDP 3.33 mg/kg over 3 days
Method: FIG. 22 is a column chart illustrating the mean number of days for tumor to reach 1000 mm^3 post-treatment with cisplatin (CDDP) or phosphate buffered saline control (PBS) in a nude mouse xenograft animal model. Graphs illustrate results for control shRNA clones 1 and 2 with and without CDDP treatment and βIII-tubulin shRNA clones 4 and 59 with and without CDDP treatment. Once tumors reached approx 300 mm3 mice were treated with 3 doses of CDDP 3.33 mg/kg over 3 days or its vehicle control (PBS). Tumors were then measured twice weekly and mice were sacrificed once tumors reached 1000 mm^3 (n=5 mice per treatment group). Mean number of days were: Control clone 1 (PBS) 15.6 days±4.95; Control clone 1 (CDDP) 13 days±4.21; Control clone 2 (PBS) 7.2 days±1.5; Control clone 2 (CDDP) 10.8 days±3.54; class III 3-tubulin shRNA clone 4 (PBS) 15.6 days±3.12; class III β-tubulin shRNA clone 4 (CDDP) 35 days±3.03; class III β-tubulin shRNA clone 59 (PBS) 15.6 days±2.11; class III β-tubulin shRNA clone 59 (CDDP) 29.4 days±3.93.
FIG. 24A is a plot of tumor volume over time in a nude mouse xenograft animal model following treatment with cisplatin (CDDP) or phosphate buffered saline control (PBS). Tumor size was plotted in mm^3 for control clone 2 with or without CDDP post-treatment and class III β-tubulin shRNA clone 4 with and without CDDP post-treatment. Once tumors reached approx 300 mm^3 mice were treated with 3 doses of CDDP (3.33 mg/kg) over 3 days or its vehicle control (PBS). Tumors were then measured twice weekly and mice sacrificed once tumors reached 1000 mm^3 FIG. 24B illustrates Kaplin Meier survival curves for tumors of two different clones with or without class III β-tubulin silencing and following CDDP or PBS vehicle treatment in vivo. Clone 2 was a control clone and clone 4 was class III β-tubulin silenced with shRNA. FIG. 24C is a plot of tumor size over time in a nude mouse xenograft animal model following treatment with cisplatin (CDDP) or phosphate buffered saline control (PBS). […] Tumors were then measured twice weekly and mice sacrificed once tumors reached 1000 mm^3 FIG. 24D illustrates Kaplin Meier survival curves for control clone 2 with and without CDDP post-treatment and for class III β-tubulin shRNA clone 59 with and without CDDP post-treatment. […]
Female BALB/c athymic nude mice (5-6 week old) were maintained under pathogen-free conditions. […] The animals were monitored twice a week from the second week post-injection for tumor formation and health status. Tumor diameter was measured twice per week using a digital caliper throughout the experiment, and tumor volume in mm^3 was calculated using the formula: Volume=(length×width×depth)/2. […]

Compound | duration of class III β-tubulin protein knockdown (class III β-tubulin) [days] | number of colonies in soft agar (H460 cells [1]) | RS (relative sensitivity) (NSCLC H460 cells; Ctrl clone 2 compared to ctrl clone 1) | RS (relative sensitivity) (NSCLC H460 cells; βIII shRNA clone 4 compared to ctrl clone 1) | RS (relative sensitivity) (NSCLC H460 cells; βIII shRNA clone 59 compared to ctrl clone 1) | RS (relative sensitivity) (NSCLC H460 cells; βIII shRNA clone 60 compared to ctrl clone 1) | change in drug sensitivity (clonogenic survival) (NSCLC H460 cells; βIII-tubulin siRNA silencing vs controls, H460) | percentage of apoptotic cells (H460 cells [2]) | mean number of days for tumor to reach 1000 mm^3 post-treatment ([3]; Control clone 1) [days] | mean number of days for tumor to reach 1000 mm^3 post-treatment ([3]; Control clone 2) [days] | mean number of days for tumor to reach 1000 mm^3 post-treatment ([3]; class III β-tubulin shRNA clone 4) [days] | mean number of days for tumor to reach 1000 mm^3 post-treatment ([3]; class III β-tubulin shRNA clone 59) [days]
27-mer βIII siRNA Sequence-11: 27-mer siRNA to class III β-tubulin, SEQ ID NO: 13 and 14, position 1352-1376 (chain 1 UCUCACUCCAGCUGCGAGCAGCUUCAC; chain 2 GAAGCUGCUCGCAGCUGGAGUGAGA; listed as RNA, chemistry not given here) | 6 | significantly less colonies | – | – | – | – | – | – | – | – | – | –
[NH2][Pt]([NH2])([Cl])[Cl] [CDDP, cisplatin] | – | – | (1.06, NS) | (2.42, 0.0002***) | (1.86, 0.001**) | (1.72, 0.0019**) | increased sensitivity | significant increase in the number of apoptotic cells | 13 | 10.8 | 35 | 29.4
27-mer βIII siRNA Sequence-8: 27-mer siRNA to class III β-tubulin, SEQ ID NO: 11 and 12, position 1521-1545 (chain 1 AGACAGAGACAGGAGCAGCUCACACGU; chain 2 GUGUGAGCUGCUCCUGUCUCUGUCT; chemistry not given here) | – | significantly less colonies | – | – | – | – | – | – | – | – | – | –
